The values that follow come from US8999295B2, “Technique for drug and gene delivery to the cell cytosol” (Brigham Young University, priority 2009, dated 2015).

The conditions of data set [1]: cited from earlier work.
Data set [2] can be described thus: Volume expansion ratio on liquid-to-vapor transformation. The conditions noted are these: at body temperature. It counts as physicochemical.
For data set [3] the following is noted: at body temperature; cited from earlier work.

Regarding `FC(F)(F)C(F)(F)C(F)(F)F` [perfluoropropane], the solubility in water in data set [1] is reported as 0.19 mol/m^3. With `FC(F)(F)C(F)(F)C(F)(F)C(F)(F)C(F)(F)C(F)(F)F` [perfluorohexane], the “expansion ratio (liquid to vapor volume)” value in data set [2] is listed as approximately 259. Also, the solubility in water in data set [1] is 2.7×10^−4 mol/m^3. Also, the vapor pressure in data set [3] is 0.48 atm. Turning to `O=O` [oxygen], the solubility in water in data set [1] is given as 1.32 mol/m^3. For `FC(F)(F)C(F)(F)C(F)(F)C(F)(F)C(F)(F)F` [PFC5, perfluoropentane], the “expansion ratio (liquid to vapor volume)” value in data set [2] was “approximately 103”.
